Results published in PubChem BioAssay (NCI).
Values joined by “and” are separate entries in the source; they are usually repeats but may differ in a detail not shown here. Identical values can stand only once.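 Values below derive from 48-hour exposures of cells grown in 96-well plates, with endpoints linearly interpolated between the two concentrations bracketing the appropriate inhibition level. Here, GI50 denotes the concentration required for 50% inhibition of growth. At the TGI there is no net growth.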

What was measured:
Experiment in all cases: DTP human tumour cell line panel, 48 h
HOP-92 NSCLC = test system: HOP-92 NSCLC
MOLT-4 leukemia = test system: MOLT-4 leukemia
SNB-19 CNS = test system: SNB-19 CNS
MDA-MB-435 = test system: MDA-MB-435
HCT-116 colon = test system: HCT-116 colon
NCI-H460 lung = test system: NCI-H460 lung
NCI-H23 lung = test system: NCI-H23 lung
SK-MEL-28 melanoma = test system: SK-MEL-28 melanoma
OVCAR-5 ovarian = test system: OVCAR-5 ovarian
KM12 colon = test system: KM12 colon

| Structure (SMILES) | GI50 (HOP-92 NSCLC) | TGI (HOP-92 NSCLC) | GI50 (MOLT-4 leukemia) | TGI (MOLT-4 leukemia) | GI50 (SNB-19 CNS) | TGI (SNB-19 CNS) | GI50 (MDA-MB-435) | TGI (MDA-MB-435) | GI50 (HCT-116 colon) | TGI (HCT-116 colon) | GI50 (NCI-H460 lung) | TGI (NCI-H460 lung) | GI50 (NCI-H23 lung) | TGI (NCI-H23 lung) | GI50 (SK-MEL-28 melanoma) | TGI (SK-MEL-28 melanoma) | GI50 (OVCAR-5 ovarian) | TGI (OVCAR-5 ovarian) | GI50 (KM12 colon) | TGI (KM12 colon) |
| --- | --- | --- | --- | --- | --- | --- | --- | --- | --- | --- | --- | --- | --- | --- | --- | --- | --- | --- | --- | --- |
| Cc1cc(NCCCCNc2ccnc3cc(Cl)ccc23)nc(Nc2ccc(C(=O)N3CCCC3)cc2)n1 | 1.58 µM | 3.7 µM | 2.81 µM | 11.6 µM | 4.5 µM | 18.1 µM | 1.79 µM | 3.35 µM | 1.59 µM | 3.55 µM | 1.96 µM | 4.98 µM | 3.7 µM | 15.8 µM | 2 µM | 4.12 µM | 4.29 µM | 18 µM | 3 µM | 11.3 µM |
| N#Cc1c(NC(=O)c2cccc3ccccc23)sc2c1CCCC2 | 0.457 µM | > 25 µM | 0.102 µM | > 25 µM | 0.107 µM | > 25 µM | 0.00636 µM | 0.0193 µM | 0.0673 µM | 5.37 µM | 0.0785 µM | > 25 µM | 0.0874 µM | > 25 µM | 0.0401 µM | > 25 µM | 0.139 µM | > 25 µM | 0.105 µM | > 25 µM |
| COc1cc2c3c(n(CCCCNC(=O)OCC4c5ccccc5-c5ccccc54)c(=O)c2cc1OC)-c1cc2c(cc1C3=O)OCO2 | 1.49 µM | 9.69 µM | 0.281 µM | 1.81 µM | 81.6 µM | > 100 µM | 64.9 µM | > 100 µM | 7.73 µM | 33.6 µM | 2.56 µM | 54.2 µM | 26.4 µM | > 100 µM | > 100 µM | > 100 µM | 17.4 µM | 51 µM | 22 µM | > 100 µM |
| CCN(CC)CCCNc1nc2ccccc2c2c(=O)c3cc(Cl)ccc3sc12 | 1.57 µM | 6.58 µM | 2.22 µM | 4.92 µM | 6.81 µM | 20.4 µM | 1.89 µM | 3.65 µM | 1.73 µM | 3.22 µM | 1.7 µM | 3.36 µM | 3.69 µM | 15.1 µM | 1.81 µM | 3.34 µM | 2.25 µM | 6.29 µM | 1.79 µM | 3.24 µM |
| COc1ccc(Cn2cnc3cc(C(=O)Nc4cccc5ccccc45)ccc32)c(OC)c1 | 0.153 µM | > 100 µM | 0.0621 µM | > 100 µM | 0.0465 µM | > 100 µM | 0.0173 µM | 0.0358 µM | 0.0374 µM | 4.49 µM | 0.0363 µM | 1.21 µM | 0.0898 µM | > 100 µM | 1.63 µM | > 100 µM | 0.18 µM | > 100 µM | 0.0391 µM | 8.06 µM |
| COc1cc2c3c(n(CCCNC(=O)OCC4c5ccccc5-c5ccccc54)c(=O)c2cc1OC)-c1cc2c(cc1C3=O)OCO2 | 48.8 µM | > 100 µM | 8.07 µM | > 34.6 µM | > 76.4 µM | > 100 µM | > 100 µM | > 100 µM | 13.8 µM | > 100 µM | 2.57 µM | > 100 µM | > 64.1 µM | > 100 µM | > 100 µM | > 100 µM | > 100 µM | > 100 µM | > 100 µM | > 100 µM |
| Cc1cc(O)ccc1O | 16.3 µM | 31.2 µM | 5.24 µM | 37.7 µM | 41.4 µM | > 100 µM | 17.8 µM | 36.6 µM | 16.9 µM | 32.9 µM | 45.4 µM | > 100 µM | 39.4 µM | > 100 µM | 30.6 µM | > 100 µM | 16.6 µM | 32.1 µM | 26.2 µM | > 100 µM |
| CS(=O)(=O)Nc1cccc(-c2ccc3c(NC(=O)C4CC4)n[nH]c3c2)c1 |  | > 25 µM | 6.27 µM | > 25 µM | 3.64 µM | > 25 µM | 0.165 µM | 0.944 µM | 1.51 µM | > 25 µM | 7.76 µM | > 25 µM | 10.2 µM | > 25 µM | 3.4 µM | > 25 µM | 12.7 µM | > 25 µM | 1.39 µM | > 25 µM |
| CC(=O)c1c(O)ccc2c(C)c(C(=O)O)oc12 | > 100 µM | > 100 µM | > 100 µM | > 100 µM | > 100 µM | > 100 µM | > 100 µM | > 100 µM | > 100 µM | > 100 µM | > 100 µM | > 100 µM | > 100 µM | > 100 µM | > 100 µM | > 100 µM | > 100 µM | > 100 µM | > 100 µM | > 100 µM |
| COC(=O)c1cc2c3ccccc3n3c(=O)c4cc5cc(OC)c(N(S(=O)(=O)c6ccc(C)cc6)S(=O)(=O)c6ccc(C)cc6)cc5nc4c(n1)c23 | 4.42 µM | 21.3 µM | 35.2 µM | > 100 µM | 5.8 µM | 32 µM | > 100 µM | > 100 µM | 13.5 µM | 59.7 µM | > 100 µM | > 100 µM | 16.7 µM | 63.2 µM | > 100 µM | > 100 µM | > 100 µM | > 100 µM | > 100 µM | > 100 µM |
| O=c1[nH]ccc2nc(-c3ccc(CN4CCC(c5nc(-c6ccccn6)n[nH]5)CC4)cc3)c(-c3ccccc3)cc12 | 0.121 µM | > 21.3 µM | 0.364 µM | 4.67 µM | 17.1 µM | > 100 µM | 17.4 µM | > 100 µM | 17.2 µM | > 92.7 µM | 1.15 µM | > 100 µM | 42.4 µM | > 100 µM | 16.8 µM | > 66.1 µM | 37.8 µM | > 100 µM | 14.7 µM | > 100 µM |
| CCCCCCCCCCCCCCCCOC(=O)c1c(C)[nH]c(/C=C2\N=C(c3ccc[nH]3)C=C2OC)c1C | 0.2 µM | 0.83 µM | > 100 µM | > 100 µM | 11.8 µM | 80.3 µM | 0.307 µM | > 100 µM | 0.043 µM | 7.33 µM | 0.0429 µM | > 100 µM | 1.15 µM | 12.7 µM | 3.94 µM | > 48.7 µM | 0.718 µM |  | 0.102 µM | > 100 µM |
| O=C1/C(=C/c2ccc([N+](=O)[O-])o2)Oc2ccccc21 | 0.912 µM | 2.62 µM | 1.35 µM | 3.7 µM | 5.06 µM | 18.6 µM | 1.79 µM | 4.01 µM | 0.332 µM | 1.36 µM | 1.91 µM | 4.09 µM | 1.95 µM | 5.08 µM | 1.65 µM | 3.2 µM | 1.85 µM | 3.5 µM | 1.77 µM | 3.48 µM |
| COc1cc(-n2cc(-c3ccc(F)cc3)[nH]c2=S)cc(OC)c1OC | 45.5 µM | > 100 µM | > 100 µM | > 100 µM | 36.6 µM | > 100 µM | > 100 µM | > 100 µM | > 100 µM | > 100 µM | > 100 µM | > 100 µM | > 100 µM | > 100 µM | > 100 µM | > 100 µM | > 100 µM | > 100 µM | > 100 µM | > 100 µM |
| O=C(NCC(=O)N1CC[C@H](NC2CCC(O)(c3ccc(-c4ncccn4)cn3)CC2)C1)c1cccc(C(F)(F)F)c1 (stereo not given in full) | 30.4 µM | > 100 µM | 39.8 µM | > 100 µM | > 100 µM | > 100 µM | > 100 µM | > 100 µM | 36.4 µM | > 100 µM | 86.5 µM | > 100 µM | 52.1 µM | > 100 µM | > 100 µM | > 100 µM | > 100 µM | > 100 µM | > 100 µM | > 100 µM |
| COc1ccc2cc3[n+](cc2c1OC)CCc1cc2c(cc1-3)OCO2 | 8.54 µM |  |  |  | 0.831 µM | > 100 µM and > 77.2 µM and 145 µM | 7.35 µM | 25.8 µM and 27 µM and 40.5 µM |  | > 100 µM and > 76.7 µM and 79.8 µM | 6.22 µM |  | 6.34 µM |  | 11.2 µM and 17.2 µM |  |  | > 100 µM and 149 µM | 2.79 µM and 4.27 µM |  |
| Oc1ccccc1Nc1nc2ccccc2c2occc12 | 5.73 µM | 19.5 µM |  |  | 7.22 µM | 20.3 µM | 9.25 µM | 21.2 µM | 14.3 µM | 27.4 µM | 14.1 µM | 27.6 µM | 4.48 µM | 17.5 µM | 15.1 µM | 31.8 µM | 12.6 µM | 25.1 µM | 12.5 µM | 50.7 µM |
| COc1cc(C(=O)/C=C/c2c(-c3ccc(F)cc3)nc3ncccn23)cc(OC)c1OC | 1.77 µM | 92.9 µM | 3.75 µM | > 100 µM | 3.12 µM | 15.5 µM | 2.36 µM | 96.6 µM | 1.53 µM | 4.45 µM |  |  | 1.58 µM | 5.79 µM | 3.68 µM | > 100 µM | 2.46 µM | 7.37 µM | 1.69 µM | 4.37 µM |
